Structures are written as SMILES.

One assay addresses Nitric oxide synthase 1 (Mus musculus, UniProt Q9Z0J4). The assay is described as follows: (§1) Inhibition of neuronal nitric oxide synthase (nNOS) in mice.
The species named for another assay is Mus musculus. In words: Selectivity ratio of IC50 of nNOS to IC50 of iNOS.
Assay [1] concerns the target T1, Nitric oxide synthase, inducible (Mus musculus, UniProt P29477).
T1 sequence (P29477 whole entry): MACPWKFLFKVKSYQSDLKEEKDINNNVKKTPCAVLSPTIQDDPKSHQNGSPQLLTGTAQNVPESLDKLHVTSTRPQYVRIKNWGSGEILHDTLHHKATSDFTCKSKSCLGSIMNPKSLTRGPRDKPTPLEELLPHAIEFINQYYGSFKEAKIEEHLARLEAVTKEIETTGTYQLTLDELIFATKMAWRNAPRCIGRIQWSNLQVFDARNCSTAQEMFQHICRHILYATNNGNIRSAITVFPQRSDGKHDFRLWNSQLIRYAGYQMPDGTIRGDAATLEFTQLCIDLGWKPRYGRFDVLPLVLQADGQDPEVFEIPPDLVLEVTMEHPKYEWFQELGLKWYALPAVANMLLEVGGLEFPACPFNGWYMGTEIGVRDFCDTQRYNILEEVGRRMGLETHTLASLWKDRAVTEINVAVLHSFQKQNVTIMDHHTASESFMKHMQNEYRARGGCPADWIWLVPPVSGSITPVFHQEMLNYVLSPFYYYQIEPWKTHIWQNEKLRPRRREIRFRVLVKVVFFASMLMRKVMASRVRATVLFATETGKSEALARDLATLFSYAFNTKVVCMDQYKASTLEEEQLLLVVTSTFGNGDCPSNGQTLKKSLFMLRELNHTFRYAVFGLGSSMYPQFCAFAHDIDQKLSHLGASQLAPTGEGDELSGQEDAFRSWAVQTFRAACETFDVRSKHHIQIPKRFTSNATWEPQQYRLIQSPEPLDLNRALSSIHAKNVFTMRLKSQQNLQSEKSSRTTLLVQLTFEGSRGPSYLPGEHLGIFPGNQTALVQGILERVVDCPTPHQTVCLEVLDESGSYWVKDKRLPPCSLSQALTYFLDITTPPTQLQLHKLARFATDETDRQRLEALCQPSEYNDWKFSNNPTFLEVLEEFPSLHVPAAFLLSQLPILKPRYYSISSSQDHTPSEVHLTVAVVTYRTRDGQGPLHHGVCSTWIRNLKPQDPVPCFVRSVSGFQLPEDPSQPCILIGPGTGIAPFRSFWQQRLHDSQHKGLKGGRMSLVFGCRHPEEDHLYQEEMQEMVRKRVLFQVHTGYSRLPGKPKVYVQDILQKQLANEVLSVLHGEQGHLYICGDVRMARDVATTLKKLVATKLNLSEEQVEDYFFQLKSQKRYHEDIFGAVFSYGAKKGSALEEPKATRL
The assay is described as follows: (§2) Inhibition of inducible nitric oxide synthase (iNOS) in mice.

Assay [2] deals with Nitric oxide synthase 1 (Mus musculus) (UniProt Q9Z0J4). The description is as §1. The following applies: concentration not given here.
In assay [3] the target is T2, Nitric oxide synthase, inducible (Mus musculus) (UniProt P29477).
T2 sequence (whole entry): T1 sequence (P29477 whole entry)
The assay is described as §2. To be noted: concentration not given here.

Chain of Nitric oxide synthase 1 (Q9Z0J4 whole entry): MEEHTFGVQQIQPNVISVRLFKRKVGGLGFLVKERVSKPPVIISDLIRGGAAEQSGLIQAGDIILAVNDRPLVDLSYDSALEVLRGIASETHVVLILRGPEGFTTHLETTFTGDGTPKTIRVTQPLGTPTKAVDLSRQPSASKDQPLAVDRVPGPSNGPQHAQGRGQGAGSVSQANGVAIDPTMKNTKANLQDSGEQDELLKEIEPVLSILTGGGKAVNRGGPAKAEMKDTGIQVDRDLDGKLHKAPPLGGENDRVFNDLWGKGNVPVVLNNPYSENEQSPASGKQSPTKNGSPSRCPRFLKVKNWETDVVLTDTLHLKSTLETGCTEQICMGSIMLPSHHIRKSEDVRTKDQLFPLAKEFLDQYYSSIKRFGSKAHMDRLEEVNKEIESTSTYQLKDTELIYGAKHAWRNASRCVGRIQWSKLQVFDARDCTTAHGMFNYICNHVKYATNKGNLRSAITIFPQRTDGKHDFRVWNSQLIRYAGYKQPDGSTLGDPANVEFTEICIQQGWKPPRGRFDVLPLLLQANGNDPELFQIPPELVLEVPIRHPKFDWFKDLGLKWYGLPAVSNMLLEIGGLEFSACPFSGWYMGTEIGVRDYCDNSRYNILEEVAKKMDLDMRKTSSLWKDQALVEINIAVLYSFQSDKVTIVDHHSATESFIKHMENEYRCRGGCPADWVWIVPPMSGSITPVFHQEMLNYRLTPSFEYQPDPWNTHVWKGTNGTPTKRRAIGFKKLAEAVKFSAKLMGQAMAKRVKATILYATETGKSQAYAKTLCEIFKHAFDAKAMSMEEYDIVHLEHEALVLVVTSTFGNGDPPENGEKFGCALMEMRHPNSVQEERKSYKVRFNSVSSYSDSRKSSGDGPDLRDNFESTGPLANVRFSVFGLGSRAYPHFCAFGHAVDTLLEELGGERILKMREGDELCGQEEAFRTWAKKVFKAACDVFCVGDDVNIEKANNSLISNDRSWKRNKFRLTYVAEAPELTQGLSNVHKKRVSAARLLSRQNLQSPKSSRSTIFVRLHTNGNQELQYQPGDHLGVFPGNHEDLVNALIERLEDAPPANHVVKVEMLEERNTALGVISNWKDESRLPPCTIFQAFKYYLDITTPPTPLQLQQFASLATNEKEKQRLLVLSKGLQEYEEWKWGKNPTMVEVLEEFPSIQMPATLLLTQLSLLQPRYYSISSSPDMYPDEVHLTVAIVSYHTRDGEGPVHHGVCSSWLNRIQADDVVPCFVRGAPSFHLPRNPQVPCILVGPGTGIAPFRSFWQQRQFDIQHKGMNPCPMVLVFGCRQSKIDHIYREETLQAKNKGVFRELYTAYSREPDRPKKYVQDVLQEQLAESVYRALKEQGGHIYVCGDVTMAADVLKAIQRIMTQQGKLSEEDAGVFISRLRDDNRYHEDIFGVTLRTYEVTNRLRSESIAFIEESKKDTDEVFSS
Chain of Nitric oxide synthase 1 (Mus musculus) (Q9Z0J4 whole entry): as above

By IC50 is commonly meant the concentration that inhibits the measured activity by half. A lower IC50 goes with inhibition by little substance. As for `C[C@@H]1N=C(N)O[C@@H]1C`, the IC50 turned out to be 1600 nM against Nitric oxide synthase 1 and 150 nM in assay [1]. Also, the Selectivity in the assay filed under Mus musculus stood at 11.

Compound `CNC(=N)NCCC[C@H](N)C(=O)O` [TILARGININE] gave a half-inhibitory concentration (IC50) on Nitric oxide synthase 1 of 4300 nM.

As for `CCC[C@@H]1N=C(N)O[C@@H]1CCC`, the half-maximal inhibitory concentration (IC50) at Nitric oxide synthase 1 worked out at 57000 nM; in assay [1] it was 6800 nM. For the same compound, the Selectivity in the assay filed under Mus musculus turned out to be 8.4.

For `CC[C@@H]1N=C(N)O[C@H]1C`, the IC50 against Nitric oxide synthase 1 is 2300 nM; in assay [1] it was 170 nM. The Selectivity in the assay listed under Mus musculus came to 14.

Turning to `CC[C@@H]1N=C(N)O[C@@H]1C`, the IC50 against Nitric oxide synthase 1 turned out to be 680 nM; in assay [1], 120 nM. The Selectivity in the assay filed under Mus musculus turned out to be 5.7.

Regarding `NC1=NCCO1`, the IC50 stood at 34000 nM at Nitric oxide synthase 1 and 7900 nM in assay [1]. In the assay filed under Mus musculus, the Selectivity worked out at 4.3.

For the compound `CC[C@@H]1N=C(N)O[C@H]1CC`, the IC50 at Nitric oxide synthase 1 was 2500 nM; in assay [1] it was 56 nM. The Selectivity in the assay filed under Mus musculus was determined as 45.

Consider `CCCCC[C@@H]1N=C(N)O[C@@H]1C`, for which the IC50 on Nitric oxide synthase 1 was 3600 nM; in assay [1] it was 230 nM. In the assay listed under Mus musculus, the Selectivity turned out to be 16.

`NC1=NCC(CBr)O1` (stereo not given): the results for the half-maximal inhibitory concentration (IC50) (at Nitric oxide synthase 1; in assay [1]) were 400 nM and 500 nM, respectively. The Selectivity in the assay listed under Mus musculus came to 0.8.

Turning to `CCC[C@@H]1N=C(N)O[C@@H]1C`, the half-inhibitory concentration (IC50) was determined as 920 nM at Nitric oxide synthase 1 and 41 nM in assay [1]. The Selectivity in the assay filed under Mus musculus amounted to 22.

On to `CCCCC[C@@H]1N=C(N)O[C@H]1C`, for which the figures for the IC50 (on Nitric oxide synthase 1; in assay [1]) were 790 nM and 500 nM, respectively. The Selectivity in the assay listed under Mus musculus is 1.6.

As to `CCC[C@@H]1N=C(N)O[C@H]1CCC`, the IC50 on Nitric oxide synthase 1 came to 73000 nM; in assay [1] it was 2500 nM. Moreover, in the assay listed under Mus musculus, the Selectivity came out at 29.

As for `C[C@H]1CC(N)=N[C@@H]2[C@H](Cl)[C@@H]21`, in the assay listed under Mus musculus, the Selectivity stood at 5.

`CC[C@@H]1OC(N)=N[C@H]1C`: the figures for the IC50 (against Nitric oxide synthase 1; in assay [1]) were 1700 nM and 120 nM, respectively. In the assay listed under Mus musculus, the Selectivity worked out at 14.

As to `C[C@H]1CC(=N)N[C@@H]2[C@H](Cl)[C@@H]21`, the IC50 at Nitric oxide synthase 1 was determined as 15 nM; in assay [1], 3 nM.

Consider `CCC[C@@H]1N=C(N)O[C@H]1C`, for which the IC50 on Nitric oxide synthase 1 is 570 nM; in assay [1], 120 nM. For the same compound, the Selectivity in the assay listed under Mus musculus is 4.8.

As to `CC1COC(N)=N1` (stereo not given), the IC50 against Nitric oxide synthase 1 turned out to be 9800 nM; in assay [1] it was 1500 nM. In the assay listed under Mus musculus, the Selectivity came to 6.5.

For `CC[C@@H]1N=C(N)O[C@@H]1CC`, the IC50 against Nitric oxide synthase 1 amounted to 1200 nM; in assay [1], 130 nM.

Regarding `N=C(NCCC[C@H](N)C(=O)O)N[N+](=O)[O-]` [NITROARGININE], the values for the IC50 (against Nitric oxide synthase 1; in assay [1]) were 500 nM and 80000 nM, respectively. The Selectivity in the assay filed under Mus musculus was 0.0063.

As for `CCC1CN=C(N)O1` (stereo not given), the IC50 against Nitric oxide synthase 1 worked out at 1800 nM; in assay [1], 280 nM. The Selectivity in the assay listed under Mus musculus is 6.4.

With `CC[C@H]1OC(N)=N[C@H]1C`, the IC50 against Nitric oxide synthase 1 amounted to 850 nM; in assay [1] it was 160 nM. Besides, the Selectivity in the assay listed under Mus musculus turned out to be 5.3.

With `CC1CN=C(N)O1` (stereo not given), the IC50 on Nitric oxide synthase 1 came out at 1400 nM; in assay [1], 74 nM. Also, in the assay filed under Mus musculus, the Selectivity turned out to be 19.

The term inhibition denotes the relative decrease from the control value, in per cent. A high value points to a response far below the control. As to `NC1=NC(c2ccccc2)CO1` (stereo not given), the results for the inhibition in assay [2] and in assay [3] were 18% and 28%, respectively.

As for `CCC1COC(N)=N1` (stereo not given), the IC50 against Nitric oxide synthase 1 came out at 2800 nM; in assay [1], 1600 nM. Moreover, the Selectivity in the assay listed under Mus musculus turned out to be 1.8.

(Values after ChEMBL document CHEMBL1139446, “4,5-Disubstituted-1,3-oxazolidin-2-imine derivatives: a new class of orally bioavailable nitric oxide synthase inhibitor” (Bioorg Med Chem Lett, 2004).)
